Legend:
[1] = tested on: HPAC (homozygous mutant KRAS G12D human pancreatic cell line); test: KRAS 3D-Cell Proliferation Assay, HPAC (Example 503); assay type: cell-based; conditions: Homo sapiens, HPAC, 168 h, HPAC 3D culture, 7 days, CellTiter-Glo 3D; read-out: Prolif HPAC 3D ATP IC50
How it was run: (§1)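 Cells grown in 3D in ultra-low attachment plates (RPMI-1640 with 10% FBS and 2 mM L-glutamine) received compound dilution series after overnight attachment, at 0.3% DMSO final, for 7 days at 37° C. ATP luminescence (CellTiter-Glo 3D) normalized to DMSO and 1 μM staurosporine; IC50 from 4-parameter Hill fit.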

[2] = tested on: H1975 (KRAS wild type human lung adenocarcinoma cell line); test: KRAS 3D-Cell Proliferation Assay, H1975 (Example 503); assay type: cell-based; conditions: Homo sapiens, NCI-H1975, 168 h, H1975 3D culture, 7 days, CellTiter-Glo 3D; read-out: Prolif H1975 3D ATP IC50
How it was run: as §1

Q: What does the source list for `Cc1nc(N)cc(-c2nc3c4c(nc(OCC5(CN6CC[C@@H](F)C6)CC5)nc4c2F)N2C[C@H]4CC[C@H](N4)[C@H]2[C@H](C)O3)c1C(F)(F)F` [Compound 284, 4-((5S,5aS,6S,9R)-1-fluoro-12-((1-(((R)-3-fluoropyrrolidin-1-yl)methyl)cyclopropyl)methoxy)-5-methyl-5a,6,7,8,9,10-hexahydro-5H-4-oxa-3,10a,11,13,14-pentaaza-6,9-methanonaphtho[1,8-ab]heptalen-2-yl)-6-methyl-5-(trifluoromethyl)pyridin-2-amine]?
A: IC50 [1]: 1.23 nM; IC50 [2]: 490 nM

Q: `Cc1nc(N)cc(-c2nc3c4c(nc(OCC5(CN6CC7COCC7C6)CC5)nc4c2F)N2C[C@H]4CC[C@H](N4)[C@H]2[C@H](C)O3)c1C(F)(F)F` (stereo partly drawn) [Compound 205, 4-((5S,5aS,6S,9R)-1-Fluoro-5-methyl-12-((1-((tetrahydro-1H-furo[3,4-c]pyrrol-5(3H)-yl)methyl)cyclopropyl)methoxy)-5a,6,7,8,9,10-hexahydro-5H-4-oxa-3,10a,11,13,14-pentaaza-6,9-methanonaphtho[1,8-ab]heptalen-2-yl)-6-methyl-5-(trifluoromethyl)pyridin-2-amine] was tested. Which IC50 [1] did it give?
A: 3.35 nM

Q: And the IC50 [2]?
A: 1130 nM

Q: Which IC50 [1] does the source give for `Cc1c(F)c(N)cc(-c2nc3c4c(nc(OCCCN5C[C@@H]6C[C@H]5CO6)nc4c2F)N2C[C@H]4CC[C@H](N4)[C@H]2[C@H](C)O3)c1C(F)(F)F` [Compound 164, 5-((5S,5aS,6S,9R)-12-(3-((1S,4S)-2-oxa-5-azabicyclo[2.2.1]heptan-5-yl)propoxy)-1-fluoro-5-methyl-5a,6,7,8,9,10-hexahydro-5H-4-oxa-3,10a,11,13,14-pentaaza-6,9-methanonaphtho[1,8-ab]heptalen-2-yl)-2-fluoro-3-methyl-4-(trifluoromethyl)aniline] here?
A: 43.8 nM

Q: And the IC50 [2]?
A: 7110 nM

Q: Which IC50 [1] does the source give for `C[C@@H]1Oc2nc(N(C)c3ccc(F)c(N)c3)c(F)c3nc(OC[C@@]45CCCN4C[C@H](F)C5)nc(c23)N2C[C@H]3CC[C@H](N3)[C@@H]12` [Compound 193, 4-fluoro-N^1-((5S,5aS,6S,9R)-1-fluoro-12-(((2R,7aS)-2-fluorotetrahydro-1H-pyrrolizin-7a(5H)-yl)methoxy)-5-methyl-5a,6,7,8,9,10-hexahydro-5H-4-oxa-3,10a,11,13,14-pentaaza-6,9-methanonaphtho[1,8-ab]heptalen-2-yl)-N^1-methylbenzene-1,3-diamine] here?
A: 2000 nM

Q: And the IC50 [2]?
A: 20000 nM

Q: What does the source list for `Cc1cc(N)c(F)c(-c2nc3c4c(nc(OC[C@@]56CCCN5CC5(CC5(F)F)C6)nc4c2F)N2C[C@H]4CC[C@H](N4)[C@H]2[C@H](C)O3)c1C(F)(F)F` (stereo partly drawn) [Compound 227, 3-((5S,5aS,6S,9R)-12-(((7a′S)-2,2-Difluorodihydro-1′H,3′H-spiro[cyclopropane-1,2′-pyrrolizin]-7a′(5′H)-yl)methoxy)-1-fluoro-5-methyl-5a,6,7,8,9,10-hexahydro-5H-4-oxa-3,10a,11,13,14-pentaaza[6,9]methanonaphtho[1,8-ab]heptalene-2-yl)-2-fluoro-5-methyl-4-(trifluoromethyl)aniline]?
A: IC50 [1]: 0.516 nM; IC50 [2]: 679 nM

Q: Which results are given for `Cc1c(F)c(N)cc(-c2nc3c4c(nc(OC[C@@H](F)CN5CC6(COC6)C5)nc4c2F)N2C[C@H]4CC[C@H](N4)[C@H]2[C@H](C)O3)c1C(F)(F)F` [Compound 145]?
A: IC50 [1]: 68.7 nM; IC50 [2]: 5120 nM

Q: `Cc1cc(N)c(Cl)c(-c2nc3c4c(nc(OC[C@@H]5CC[C@H]6COCCN65)nc4c2F)N2C[C@H]4CC[C@H](N4)[C@H]2[C@H](C)O3)c1C(F)(F)F` [Compound 103, 2-Chloro-3-((5S,5aS,6S,9R)-1-fluoro-12-(((6S,8aS)-hexahydro-1H-pyrrolo[2,1-c][1,4]oxazin-6-yl)methoxy)-5-methyl-5a,6,7,8,9,10-hexahydro-5H-4-oxa-3,10a,11,13,14-pentaaza-6,9-methanonaphtho[1,8-ab]heptalen-2-yl)-5-methyl-4-(trifluoromethyl)aniline] was tested. Which IC50 [1] did it give?
A: 9.29 nM

Q: What about the IC50 [2] of the same compound?
A: 3460 nM

Q: For `C[C@@H]1Oc2nc(-c3cc(N)c(F)c(C4CC4)c3C(F)(F)F)c(F)c3nc(OC[C@@H]4CC[C@H]5COCCN54)nc(c23)N2C[C@H]3CC[C@H](N3)[C@@H]12` [Compound 233, 3-Cyclopropyl-2-fluoro-5-((5S,5aS,6S,9R)-1-fluoro-12-(((6S,8aS)-hexahydro-1H-pyrrolo[2,1-c][1,4]oxazin-6-yl)methoxy)-5-methyl-5a,6,7,8,9,10-hexahydro-5H-4-oxa-3,10a,11,13,14-pentaaza-6,9-methanonaphtho[1,8-ab]heptalen-2-yl)-4-(trifluoromethyl)aniline], which IC50 [1] is on record?
A: 2000 nM

Q: What about the IC50 [2] of the same compound?
A: 5400 nM

Q: `Cc1nc(N)cc(-c2nc3c4c(nc(OCC5(CN6CCC7(CCCO7)C6)CC5)nc4c2F)N2C[C@H]4CC[C@H](N4)[C@H]2[C@H](C)O3)c1C(F)(F)F` (stereo partly drawn) [Compound 287, 4-((5S,5aS,6S,9R)-12-((1-((1-oxa-7-azaspiro[4.4]nonan-7-yl)methyl)cyclopropyl)methoxy)-1-fluoro-5-methyl-5a,6,7,8,9,10-hexahydro-5H-4-oxa-3,10a,11,13,14-pentaaza[6,9]methanonaphtho[1,8-ab]heptalene-2-yl)-6-methyl-5-(trifluoromethyl)pyridin-2-amine] was tested. Which IC50 [1] did it give?
A: 5.72 nM

Q: What about the IC50 [2] of the same compound?
A: 1380 nM

Q: Which results are given for `Cc1nc(N)cc(-c2nc3c4c(nc(OCC5(CN6CC7CC(C6)O7)CC5)nc4c2F)N2C[C@H]4CC[C@H](N4)[C@H]2[C@H](C)O3)c1C(F)(F)F` [Compound 265, 4-((5S,5aS,6S,9R)-12-((1-((6-oxa-3-azabicyclo[3.1.1]heptan-3-yl)methyl)cyclopropyl)methoxy)-1-fluoro-5-methyl-5a,6,7,8,9,10-hexahydro-5H-4-oxa-3,10a,11,13,14-pentaaza-6,9-methanonaphtho[1,8-ab]heptalene-2-yl)-6-methyl-5-(trifluoromethyl)pyridin-2-amine]?
A: IC50 [1]: 2.24 nM; IC50 [2]: 6240 nM

Q: Which IC50 [1] does the source give for `CO[C@@H]1CCN(CC2(COc3nc4c5c(nc(-c6cc(N)nc(C)c6C(F)(F)F)c(F)c5n3)O[C@@H](C)[C@@H]3[C@@H]5CC[C@H](CN43)N5)CC2)C[C@@H]1F` [Compound 275, 4-((5S,5aS,6S,9R)-1-fluoro-12-((1-(((3S,4R)-3-fluoro-4-methoxypiperidin-1-yl)methyl)cyclopropyl)methoxy)-5-methyl-5a,6,7,8,9,10-hexahydro-5H-4-oxa-3,10a,11,13,14-pentaaza-6,9-methanonaphtho[1,8-ab]heptalene-2-yl)-6-methyl-5-(trifluoromethyl)pyridin-2-amine] here?
A: 3.29 nM

Q: And the IC50 [2]?
A: 5180 nM

Q: For `Cc1c(F)c(N)c(F)c(-c2nc3c4c(nc(OC[C@@H]5C[C@@H](F)CN5C)nc4c2F)N2C[C@H]4CC[C@H](N4)[C@H]2[C@H](C)O3)c1C(F)(F)F` [Compound 228, 2,6-Difluoro-3-((5S,5aS,6S,9R)-1-fluoro-12-(((2S,4R)-4-fluoro-1-methylpyrrolidin-2-yl)methoxy)-5-methyl-5a,6,7,8,9,10-hexahydro-5H-4-oxa-3,10a,11,13,14-pentaaza-6,9-methanonaphtho[1,8-ab]heptalen-2-yl)-5-methyl-4-(trifluoromethyl)aniline], which IC50 [1] is on record?
A: 2000 nM

Q: What about the IC50 [2] of the same compound?
A: 20000 nM

Q: `Cc1c(F)c(N)cc(-c2nc3c4c(nc(OC[C@@H]5CC[C@H]6COCCN65)nc4c2F)N2C[C@H]4CC[C@H](N4)[C@H]2[C@H](C)O3)c1CC(F)(F)F` [Compound 113, 2-fluoro-5-((5S,5aS,6S,9R)-1-fluoro-12-(((6S,8aS)-hexahydro-1H-pyrrolo[2,1-c][1,4]oxazin-6-yl)methoxy)-5-methyl-5a,6,7,8,9,10-hexahydro-5H-4-oxa-3,10a,11,13,14-pentaaza-6,9-methanonaphtho[1,8-ab]heptalen-2-yl)-3-methyl-4-(2,2,2-trifluoroethyl)aniline] was tested. Which IC50 [1] did it give?
A: 2.91 nM

Q: What about the IC50 [2] of the same compound?
A: 1170 nM

Q: For `Cc1nc(N)cc(-c2nc3c4c(nc(OCC5(CN6C[C@H]7C[C@@H]6CO7)CC5)nc4c2F)N2C[C@H]4CC[C@H](N4)[C@H]2[C@H](C)O3)c1C(F)(F)F` [Compound 209, 4-((5S,5aS,6S,9R)-12-((1-(((1R,4R)-2-Oxa-5-azabicyclo[2.2.1]heptan-5-yl)methyl)cyclopropyl)methoxy)-1-fluoro-5-methyl-5a,6,7,8,9,10-hexahydro-5H-4-oxa-3,10a,11,13,14-pentaaza-6,9-methanonaphtho[1,8-ab]heptalene-2-yl)-6-methyl-5-(trifluoromethyl)pyridin-2-amine], which IC50 [1] is on record?
A: 3.47 nM

Q: And the IC50 [2]?
A: 282 nM

Q: Which results are given for `Cc1cc(N)c(F)c(-c2nc3c4c(nc(OC[C@@H]5CC[C@H]6COCCN65)nc4c2F)N2C[C@H]4CC[C@H](N4)[C@H]2[C@H](C)O3)c1C=C(F)F` [Compound 99, 4-(2,2-Difluorovinyl)-2-fluoro-3-((5S,5aS,6S,9R)-1-fluoro-12-(((6S,8aS)-hexahydro-1H-pyrrolo[2,1-c][1,4]oxazin-6-yl)methoxy)-5-methyl-5a,6,7,8,9,10-hexahydro-5H-4-oxa-3,10a,11,13,14-pentaaza-6,9-methanonaphtho[1,8-ab]heptalen-2-yl)-5-methylaniline]?
A: IC50 [1]: 40 nM; IC50 [2]: 5060 nM

Q: With `Cc1c(F)c(N)cc(-c2nc3c4c(nc(OC[C@@]56C[C@H](F)CN5C[C@H](F)C6)nc4c2F)N2C[C@H]4CC[C@H](N4)[C@H]2[C@H](C)O3)c1C(F)(F)F` [Compound 142, 5-((5S,5aS,6S,9R)-12-(((2R,6S,7as)-2,6-Difluorotetrahydro-1H-pyrrolizin-7a(5H)-yl)methoxy)-1-fluoro-5-methyl-5a,6,7,8,9,10-hexahydro-5H-4-oxa-3,10a,11,13,14-pentaaza-6,9-methanonaphtho[1,8-ab]heptalen-2-yl)-2-fluoro-3-methyl-4-(trifluoromethyl)aniline] as the compound, how does the IC50 [1] read?
A: 5.45 nM

Q: And the IC50 [2]?
A: 3560 nM

Source: US12338256B2, “Aza-tetracyclic oxazepine compounds and uses thereof” (Genentech, Inc., priority 2022, dated 2025)
